One data set concerns isolated rat aorta. The data set can be described thus: Vasodilating effect on blood vessel excised from rats (methoxamine-constricted aorta). To be noted: isolated rat aorta constricted with methoxamine (3 μM); read-out: Concentration for inhibition of constriction induced by methoxamine in rat arota (IC50). The text has this: Rats (350˜450 g, obtained from the Experimental Animal Team of the Korea Research Institute of Chemical Technology) were knocked to be unconscious by hitting the occipital region, sacrificed by cervical dislocation, and underwent thoracotomy. After being quickly removed, the thoracic aorta was deprived of the adipose tissue and cut into aortic rings of 3 mm width. The aorta was lightly rubbed with cotton club soaked in a modified Krebs Henseleit buffer (Physiological salt solution) to remove the inner epithelial layer therefrom. While being hung in an organ bath containing a physiological buffer, the vascular smooth muscle was allowed to equilibrate under a resting tension of 2 g and then, stand for 1 hour at 37° C. for stabilization, supplying a carbogen consisting of 95% O2˜5% CO2.
Thereafter, the vascular smooth muscle was constricted with 10^−5M phenylephrine and washed several times with physiological saline solution. The said procedure was repeated again to ensure the stable reactivity of vascular smooth muscle to repetitive constriction/relaxation.
Thereafter, 3×10^−6 M methoxamine was applied to induce an intensive constriction in the vascular smooth muscle. When the vasoconstriction induced by the methoxamine was reached and maintained to a maximum, test compounds and control material was cumulatively added to the organ bath in concentration of 1, 3, 10 and 30 μM, respectively, to examine the vasodilating effect. Cromakalim, BMS-180448 (the compound of formula 4) and BMS-191095 (the compound of formula 5), known to be the first generation KATP opener with potent vasodilating effect were used as control materials.
The change rate of constriction by the addition of the drugs compared to the maximal constriction induced by methoxamine was calculated to plot a concentration-relaxation response curve. Through a least linear regression analysis, IC50 that the drug concentration at which the vascular tissue is relaxed to 50% extent of the maximal constriction, was obtained for each drug.

For the next data set, the system named is cortical neuron cells. The data set can be described thus: Protective effect on iron-induced neuronal cell injury (LDH release). To be noted: FeSO4 50 μM; for protective effect on neuron cell: Inhibition (%, 30 μM compound addition): LDH reduction vs control; for IC50: LDH. The data set is classed as cell-based. On the procedure:
From the brains of 17˜18 day-old embryos, cortical neuron cells were isolated and then, cultured at 37° C. for 7˜9 days in a 5% CO2 incubator. The said cortical cell cultures were washed twice with MEM (Minimum essential medium) to reduce the serum level to 0.2%. […] Then, the compound of the said concentration was pre-treated for 30 min, respectively. For the experiment, test compound was dissolved in DMSO and diluted in a medium. At this time, the final concentration of DMSO was not allowed to exceed 0.1%. For control group, only vehicle was applied.
After the said pre-treatment, FeSO4 was added to the medium for a final concentration to be 50 μM. The medium was cultured in CO2 incubator for 24 hours. During the incubation, lactate dehydrogenase (LDH) was released by iron. The serum level of lactate dehydrogenase released into the medium was measured to assess necrosis of neuronal cell by the oxidative toxicity of iron. The protective effect on neuron cells of the test compounds was evaluated by calculating the LDH reduction rate of treatment-group compared with that of the control group.

Data set [1] can be described thus: Acute oral toxicity test in rats. To be noted: SD, rat, in vivo, single oral dose, suspended in 0.5% methyl cellulose, read-out: lethal dose (LD50) for oral administration. The protocol:
In this test, six-week old SPF SD rats were used with two rats assigned to each group. Each group was consisted of two rats. The compounds prepared in example 1, 7, 11, 17, 22, 24, 26, 28, 30, 32, 34, 42, 52, 54, 55, 56, 57, 59, 60, 61, 70, 75, 77, 79, 81, 83, 85, and 89 were suspended in 0.5% methyl cellulose, respectively. […] Also, hematological test and biochemical analysis were accomplished. After sacrificing the animals, autopsy was performed for macroscopic observations of the organs and tissues. As a result, there was no significant changes in clinical symptoms, body weight and mortalities. Also in hematology, serum chemistry parameters, macroscopic observation and drug-related changes were not observed.

The record followed here is patent US7414068B2, “Benzopyran derivatives substituted with secondary amines including tetrazole, method for the preparation thereof and pharmaceutical compositions containing them” (Dongbu Hannong Chemical Co., Ltd., priority 2002, dated 2008).

SMILES strings stand for the structures.

In the case of `CC1(C)Oc2ccc(C#N)cc2[C@H](N(Cc2ncc[nH]2)c2ccc(Cl)cc2)[C@H]1O` [BMS-191095, reference compound], in the data set with isolated rat aorta, the IC50 was 2.14 µM.

In the case of `CC1(C)Oc2ccc(C#N)cc2C(N2CCCC2=O)C1O` (stereo not shown) [Cromakalim, reference compound], in the data set on isolated rat aorta, the IC50 worked out at 0.067 µM.

As for `COC(OC)[C@@]1(C)Oc2ccc(N)cc2[C@@H](N(Cc2nnn(C)n2)c2ccc(Cl)cc2)[C@@H]1O` [Example 10, (2S,3S,4R)-6-amino-4-[N-(4-chlorophenyl)-N-(2-methyl-2H-tetrazol-5-ylmethyl)amino]-3-hydroxy-2-methyl-2-dimethoxymethyl-3,4-dihydro-2H-1-benzopyran], in the data set on cortical neuron cells (24 hours), the “protective effect on neuron cell: Inhibition (%, 30 μM compound addition)” value is reported as 103%. Moreover, the IC50 with cortical neuron cells (Cortical neurone, 24 h) was 2.2 µM; with isolated rat aorta, > 30 µM.

For the molecule `COC(OC)[C@@]1(C)Oc2ccc(N)cc2[C@@H](N(Cc2nnn(C)n2)c2ccc(C)cc2)[C@@H]1O` [Example 24], in the data set on cortical neuron cells (24 hours), the “protective effect on neuron cell: Inhibition (%, 30 μM compound addition)” value is listed as 98% and the IC50 stood at 6.1 µM. In the data set with isolated rat aorta, the IC50 is > 30 µM.

In the case of `COC(OC)[C@@]1(C)Oc2ccc([N+](=O)[O-])cc2[C@H](N(Cc2nnn(C)n2)c2ccc(C(F)(F)F)cc2)[C@H]1O` [Example 33, (2S,3R,4S)-6-nitro-4-[N-(4-trifluoromethylphenyl)-N-(2-methyl-2H-tetrazol-5-ylmethyl)amino]-3-hydroxy-2-methyl-2-dimethoxymethyl-3,4-dihydro-2H-1-benzopyran], the “protective effect on neuron cell: Inhibition (%, 30 μM compound addition)” value with cortical neuron cells (24 hours) came out at 91%. Besides, the IC50 in the data set with cortical neuron cells (Cortical neurone, 24 h) was 6 µM.

As for `COC(OC)[C@@]1(C)Oc2ccc(N)cc2[C@H](N(Cc2nnn(C)n2)c2ccccc2)[C@H]1O` [Example 55, (2S,3R,4S)-6-amino-4-[N-(2-methyl-2H-tetrazol-5-ylmethyl)phenylamino]-3-hydroxy-2-methyl-2-dimethoxymethyl-3,4-dihydro-2H-1-benzopyran], the LD50 in data set [1] was > 2000 mg/kg.

For `COC(OC)[C@@]1(C)Oc2ccc(N)cc2[C@H](N(Cc2ccccc2)Cc2nnn(C)n2)[C@H]1O` [Example 57, (2S,3R,4S)-6-amino-4[N-benzyl-N-(2-methyl-2H-tetrazol-5-ylmethyl)amino]-3-hydroxy-2-methyl-2-dimethoxymethyl-3,4-dihydro-2H-1-benzopyran], the LD50 in data set [1] was > 2000 mg/kg. Further, the “protective effect on neuron cell: Inhibition (%, 30 μM compound addition)” value in the data set on cortical neuron cells (24 hours) amounted to 94%. The molecule also gave an IC50 in the data set with cortical neuron cells (Cortical neurone, 24 h) of 3.1 µM.

Regarding `COC(OC)[C@@]1(C)Oc2ccc(N)cc2[C@H](N(Cc2nnn(C)n2)c2ccc(O)cc2C)[C@H]1O` [Example 65, (2S, 3R,4S)-6-amino-4-[N-(2methyl-4-hydroxyphenyl)-N-(2-methyl-2H-tetrazol-5-ylmethyl)amino]-3-hydroxy-2-methyl-2-dimethoxymethyl-3,4-dihydro-2H-1-benzopyran], the IC50 with isolated rat aorta was > 30 µM.

Consider `COC(OC)[C@@]1(C)Oc2ccc(N)cc2[C@H](N(Cc2nnn(C)n2)c2cc(C)ccc2O)[C@H]1O` [Example 71, (2S,3R,4S)-6-amino-4-[N-(2-hydroxy-5-methylphenyl)-N-(2-methyl-2H-tetrazol-5-ylmethyl)amino]-3-hydroxy-2-methyl-2-dimethoxymethyl-3,4-dihydro-2H-1-benzopyran], for which, in the data set on cortical neuron cells (24 hours), the “protective effect on neuron cell: Inhibition (%, 30 μM compound addition)” value is on record as 89% and the IC50 is 0.9 µM. Besides, in the data set with cortical neuron cells (Cortical neurone, 24 h), the IC50 is < 1 µM.

As for `COC(OC)[C@@]1(C)Oc2ccc([N+](=O)[O-])cc2[C@@H](N(Cc2nnn(C)n2)c2ccc(C(F)(F)F)cc2)[C@@H]1O` [Example 74, (2S,3S,4R)-6-nitro-4-[N-(4-trifluoromethylphenyl)-N-(2-methyl-2H-tetrazol-5-ylmethyl)amino]-3-hydroxy-2-methyl-2-dimethoxymethyl-3,4-dihydro-2H-1-benzopyran], in the data set with cortical neuron cells (24 hours), the “protective effect on neuron cell: Inhibition (%, 30 μM compound addition)” value is 90%. The molecule further registered an IC50 in the data set with cortical neuron cells (Cortical neurone, 24 h) of 5.3 µM.

For the molecule `COC(OC)[C@]1(C)Oc2ccc([N+](=O)[O-])cc2[C@@H](N(Cc2nnn(C)n2)c2ccc(C(F)(F)F)cc2)[C@@H]1O` [Example 76, (2R,3S,4R)-6-nitro-4-[N-(4-trifluoromethylphenyl)-N-(2-methyl-2H-tetrazol-5-ylmethyl)amino]-3-hydroxy-2-methyl-2-dimethoxymethyl-3,4-dihydro-2H-1-benzopyran], the “protective effect on neuron cell: Inhibition (%, 30 μM compound addition)” value in the data set with cortical neuron cells (24 hours) was found to be 52%. In the data set with cortical neuron cells (Cortical neurone, 24 h), the IC50 was found to be 5.7 µM.

As to `COC(OC)[C@]1(C)Oc2ccc([N+](=O)[O-])cc2[C@H](N(Cc2nnn(C)n2)c2ccc(C(F)(F)F)cc2)[C@H]1O` [Example 78, (2R,3R,4S)-6-nitro-4-[N-(4-trifluoromethylphenyl)-N-(2-methyl-2H-tetrazol-5-ylmethyl)amino]-3-hydroxy-2-methyl-2-dimethoxymethyl-3,4-dihydro-2H-1-benzopyran], the “protective effect on neuron cell: Inhibition (%, 30 μM compound addition)” value in the data set with cortical neuron cells (24 hours) turned out to be 69%. In the data set with cortical neuron cells (Cortical neurone, 24 h), this molecule displayed an IC50 of 4.4 µM.

On to `COC(OC)[C@]1(C)Oc2ccc(N)cc2[C@H](N(Cc2nnn(C)n2)c2ccc(C(F)(F)F)cc2)[C@H]1O` [Example 79, (2R,3R,4S)-6-amino-4-[N-(4-trifluoromethylphenyl)-N-(2-methyl-2H-tetrazol-5-ylmethyl)amino]-3-hydroxy-2-methyl-2-dimethoxymethyl-3,4-dihydro-2H-1-benzopyran], for which the LD50 in data set [1] is > 2000 mg/kg. In the data set on cortical neuron cells (24 hours), the “protective effect on neuron cell: Inhibition (%, 30 μM compound addition)” value is 107% and the IC50 was found to be 1.7 µM. In addition, the IC50 in the data set on cortical neuron cells (Cortical neurone, 24 h) was < 2 µM.

Regarding `COC(OC)[C@@]1(C)Oc2ccc([N+](=O)[O-])cc2[C@@H](N(Cc2nnn(C)n2)c2ccc(OC(F)(F)F)cc2)[C@@H]1O` [Example 80, (2S,3S,4R)-6-nitro-4-[N-(4-trifluoromethoxyphenyl)-N-(2-methyl-2H-tetrazol-5-ylmethyl)amino]-3-hydroxy-2-methyl-2-dimethoxymethyl-3,4-dihydro-2H-1-benzopyran], in the data set on cortical neuron cells (24 hours), the “protective effect on neuron cell: Inhibition (%, 30 μM compound addition)” value came to 95%. Besides, in the data set with cortical neuron cells (Cortical neurone, 24 h), the IC50 was found to be 5 µM.

As to `COC(OC)[C@]1(C)Oc2ccc([N+](=O)[O-])cc2[C@H](N(Cc2nnn(C)n2)c2ccc(OC(F)(F)F)cc2)[C@H]1O` [Example 82, (2R,3R,4S)-6-nitro-4-[N-(4-trifluoromethoxyphenyl)-N-(2-methyl-2H-tetrazol-5-ylmethyl)amino]-3-hydroxy-2-methyl-2-dimethoxymethyl-3,4-dihydro-2H-1-benzopyran], in the data set on cortical neuron cells (24 hours), the “protective effect on neuron cell: Inhibition (%, 30 μM compound addition)” value came out at 69% and the IC50 was determined as 1.3 µM. The IC50 in the data set on cortical neuron cells (Cortical neurone, 24 h) was < 2 µM.

As for `COC(OC)[C@]1(C)Oc2ccc([N+](=O)[O-])cc2[C@@H](N(Cc2nnn(C)n2)c2ccc(OC(F)(F)F)cc2)[C@@H]1O` [Example 84, (2R,3S,4R)-6-nitro-4-[N-(4-trifluoromethoxyphenyl)-N-(2-methyl-2H-tetrazol-5-ylmethyl)amino]-3-hydroxy-2-methyl-2-dimethoxymethyl-3,4-dihydro-2H-1-benzopyran], the “protective effect on neuron cell: Inhibition (%, 30 μM compound addition)” value in the data set on cortical neuron cells (24 hours) came out at 48%. In the data set with cortical neuron cells (Cortical neurone, 24 h), this molecule displayed an IC50 of 5.6 µM.

On to `COC[C@]1(C)Oc2ccc([N+](=O)[O-])cc2[C@@H](N(Cc2nnn(C)n2)c2ccc(F)cc2)[C@@H]1O` [Example 99, (2S,3S,4R)-6-nitro-4-[N-(4-fluorophenyl)-N-(2-methyl-2H-tetrazol-5-ylmethyl)amino]-3-hydroxy-2-methyl-2-methoxymethyl-3,4-dihydro-2H-1-benzopyran], for which the “protective effect on neuron cell: Inhibition (%, 30 μM compound addition)” value in the data set with cortical neuron cells (24 hours) is on record as 69%. The molecule also displayed an IC50 in the data set on cortical neuron cells (Cortical neurone, 24 h) of 20.8 µM.
